Here are results for six molecules from publication PMC10096163, “Structural Insights and Intermolecular Energy for Some Medium and Long-Chain Testosterone Esters” (Molecules, 2023).

Values after ≈ are worked out from the molar mass of the structure shown. Where two headings read alike, the source gives them in different places.

A short description of data set [1]: Solubility of esters in benzyl alcohol / benzyl benzoate / oil mixtures. The data set is classed as physicochemical. The settings on record: for solubility: oil or lipid, thermodynamic from solid. The method, then: The esters’ solubility (mg/mL) was evaluated in mixtures which included different solvents and organic oils, such as medium-chain triglyceride (MCT), apricot, grape seed (GSO), castor, cottonseed, […] sesame oil.
The solutions contained mixtures of benzyl alcohol, benzyl benzoate and oil, with a volumetric ratio of 2% benzyl alcohol, 20% benzyl benzoate and 78% oil. Numerous pharmaceuticals of various lipophilic agents (various steroids were included) use benzyl benzoate as a co-solvent/solubilizer; benzyl alcohol behaves as well as a solvent and inhibits the microbial growth, and meanwhile the oils act as carriers.
In certain cases, an excess of raw samples remained undissolved (in suspension) and small quantities of mixtures were added, ensuring that the resulting solutions became homogenous, clear and transparent. Three measurements were taken to improve accuracy, and their average value was used.

Details of data set [2]: method as in PMID 36295310. The settings on record: short esters, previously reported; cited from earlier work.
The conditions of data set [3]: cited from earlier work.
[4] abbreviates: 14 °C, 2% benzyl alcohol, 20% benzyl benzoate, 78% medium-chain triglyceride, 14 °C, average of three measurements, read-out: Solubility MCT.
Where [5] appears, read: 14 °C, average over the six oil mixtures, 14 °C, read-out: Average solubility.
The mark [6] stands for this setting: benzyl alcohol / benzyl benzoate / apricot oil mixture, 14 °C, 2% benzyl alcohol, 20% benzyl benzoate, 78% apricot oil, 14 °C, average of three measurements, read-out: Solubility APRICOT.
The mark [7] stands for this setting: benzyl alcohol / benzyl benzoate / castor oil mixture, 14 °C, 2% benzyl alcohol, 20% benzyl benzoate, 78% castor oil, 14 °C, average of three measurements, read-out: Solubility CASTOR.
Where [8] appears, read: benzyl alcohol / benzyl benzoate / cottonseed oil mixture, 14 °C, 2% benzyl alcohol, 20% benzyl benzoate, 78% cottonseed oil, 14 °C, average of three measurements, read-out: Solubility COTTON.
Where [9] appears, read: benzyl alcohol / benzyl benzoate / grape seed oil mixture, 14 °C, 2% benzyl alcohol, 20% benzyl benzoate, 78% grape seed oil, 14 °C, average of three measurements, read-out: Solubility GSO.
The mark [10] stands for this setting: benzyl alcohol / benzyl benzoate / sesame oil mixture, 14 °C, 2% benzyl alcohol, 20% benzyl benzoate, 78% sesame oil, 14 °C, average of three measurements, read-out: Solubility SESAME.
[11] abbreviates: esterified form, intramuscular or subcutaneous injection.

By solubility is commonly meant the dissolved amount per volume that the medium holds. In the case of `C[C@]12CC[C@H]3[C@@H](CCC4=CC(=O)CC[C@@]43C)[C@@H]1CC[C@@H]2OC(=O)CCC1CCCC1` [TCyp, Androst-4-en-17β-ol-3-one 17β-cyclopentylpropionate], the solubility is 257 mg/mL (≈ 623 mM) in data set [1] (setting [4]); approximately 255 mg/mL (≈ 618 mM) in data set [1] (setting [5]); 238 mg/mL (≈ 576 mM) in data set [1] (setting [6]); 287 mg/mL (≈ 695 mM) in data set [1] (setting [7]); 236 mg/mL (≈ 573 mM) in data set [1] (setting [8]); 239 mg/mL (≈ 580 mM) in data set [1] (setting [9]). In data set [1] (setting [10]), the solubility came out at 278 mg/mL (≈ 674 mM).

Turning to `CC(C)CCC(=O)O[C@H]1CC[C@H]2[C@@H]3CCC4=CC(=O)CC[C@]4(C)[C@H]3CC[C@]12C` [isocaproate], the “Solubility, averaging” value in data set [2] is given as 447 mg/mL (≈ 1160 mM).

For `CCCCCCCCCC(=O)OC1CCC2C3CCC4=CC(=O)CCC4(C)C3CCC12C` (stereo not drawn) [TDec, Androst-4-en-17β-ol-3-one 17β-decanoate], the solubility was determined as 597 mg/mL (≈ 1350 mM) in data set [1] (setting [4]); 534 mg/mL (≈ 1210 mM) in data set [1] (setting [5]); 537 mg/mL (≈ 1210 mM) in data set [1] (setting [6]); 530 mg/mL (≈ 1200 mM) in data set [1] (setting [7]); 496 mg/mL (≈ 1120 mM) in data set [1] (setting [8]); 497 mg/mL (≈ 1120 mM) in data set [1] (setting [9]). The solubility in data set [1] (setting [10]) was 549 mg/mL (≈ 1240 mM). For the same molecule, the “Solubility fold greater than the other esters” value in data set [1] (TDec compared with TCyp and TUnd, average solubility) was 2.5–3 fold.

Turning to “Androst-4-en-17β-ol-3-one 17β-undecanoate [TUnd]”, the “Solubility APRICOT” value in data set [1] (2% benzyl alcohol, 20% benzyl benzoate, 78% apricot oil, 14 °C, average of three measurements) came to 200.1 mg/mL. The “Solubility CASTOR” value in data set [1] (2% benzyl alcohol, 20% benzyl benzoate, 78% castor oil, 14 °C, average of three measurements) is 196.3 mg/mL. In addition, the “Solubility COTTON” value in data set [1] (2% benzyl alcohol, 20% benzyl benzoate, 78% cottonseed oil, 14 °C, average of three measurements) was 195.5 mg/mL. In addition, the “Solubility GSO” value in data set [1] (2% benzyl alcohol, 20% benzyl benzoate, 78% grape seed oil, 14 °C, average of three measurements) amounted to 183.1 mg/mL. In addition, the “Solubility MCT” value in data set [1] (2% benzyl alcohol, 20% benzyl benzoate, 78% medium-chain triglyceride, 14 °C, average of three measurements) is reported as 201.8 mg/mL. Moreover, the “Solubility SESAME” value in data set [1] (2% benzyl alcohol, 20% benzyl benzoate, 78% sesame oil, 14 °C, average of three measurements) is 209.1 mg/mL. The Average solubility result in data set [1] (average over the six oil mixtures, 14 °C) is on record as “roughly 197 mg/mL”. Also, in data set [3] (setting [11]), the Half-life result is recorded as “up to 36 days”.

With `C[C@]12CC[C@H]3[C@@H](CCC4=CC(=O)CC[C@@]43C)[C@@H]1CC[C@@H]2O` [Testosterone, 17β-Hydroxyandrost-4-en-3-one], the Half-life entry in data set [3] (non-esterified testosterone) was “a few hours”.

`CC(=O)O[C@H]1CC[C@H]2[C@@H]3CCC4=CC(=O)CC[C@]4(C)[C@H]3CC[C@]12C` [testosterone acetate]: the “Solubility, averaging” value in data set [2] is 110 mg/mL. Besides, in data set [3] (setting [11]), the Half-life entry is “less than 24 h”.
